In US12595248B2, “PRMT5 inhibitors” (Merck Sharp & Dohme LLC, priority 2019, dated 2026):
Where two headings read alike, the source gives them in different places.

What was measured:
[1] = target: T1, PRMT5-MEP50 enzyme complex (Homo sapiens, UniProt O14744); assay: PRMT5-MEP50 Enzyme Methylation Assay (Version B); format: biochemical
T1 construct: Full-length (FL)-PRMT5-MEP50 enzyme complex (recombinant proteins from baculovirus-transfected Sf21 cells: FL-PRMT5; MW=73837 kDa and FL-MEP50; MW=38614); made in house; host or cells: baculovirus-transfected Sf21 cells
T1 sequence (O14744 whole entry): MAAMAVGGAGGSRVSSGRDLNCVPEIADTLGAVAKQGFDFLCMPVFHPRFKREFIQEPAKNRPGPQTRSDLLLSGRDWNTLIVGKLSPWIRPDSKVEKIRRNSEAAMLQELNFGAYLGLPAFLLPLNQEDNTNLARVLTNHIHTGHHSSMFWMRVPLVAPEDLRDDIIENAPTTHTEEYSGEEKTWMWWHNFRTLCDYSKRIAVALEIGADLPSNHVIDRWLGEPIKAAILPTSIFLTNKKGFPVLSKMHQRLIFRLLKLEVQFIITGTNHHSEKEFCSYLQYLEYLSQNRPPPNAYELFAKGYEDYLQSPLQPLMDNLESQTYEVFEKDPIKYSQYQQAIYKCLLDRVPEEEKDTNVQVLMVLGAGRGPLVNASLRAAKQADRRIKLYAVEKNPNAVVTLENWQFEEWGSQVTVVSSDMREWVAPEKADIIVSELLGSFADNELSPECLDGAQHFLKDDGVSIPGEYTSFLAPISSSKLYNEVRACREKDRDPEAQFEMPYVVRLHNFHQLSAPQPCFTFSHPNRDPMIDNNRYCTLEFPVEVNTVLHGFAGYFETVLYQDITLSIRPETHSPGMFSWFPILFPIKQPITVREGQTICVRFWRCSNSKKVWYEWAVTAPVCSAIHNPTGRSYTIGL
T1 sequence (Q9BQA1 whole entry partner): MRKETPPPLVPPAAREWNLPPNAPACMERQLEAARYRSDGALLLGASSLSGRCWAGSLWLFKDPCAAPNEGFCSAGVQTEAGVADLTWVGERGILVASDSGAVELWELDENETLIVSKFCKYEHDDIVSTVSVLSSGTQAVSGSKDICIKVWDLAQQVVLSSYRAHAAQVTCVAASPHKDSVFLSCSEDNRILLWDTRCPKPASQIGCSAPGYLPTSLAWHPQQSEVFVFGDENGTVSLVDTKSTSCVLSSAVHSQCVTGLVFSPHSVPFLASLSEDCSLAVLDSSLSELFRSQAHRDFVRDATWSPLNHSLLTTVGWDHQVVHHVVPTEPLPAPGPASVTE
Experimental: PRMT5-MEP50 Enzyme Methylation Assay (Version B)
PRMT5-MEP50 biochemical assay is a direct measurement of the methylation activity of the enzyme complex on a short peptide substrate derived from the N-terminus of H4 histone. Methylation experiment was performed with recombinant PRMT5-MEP50 protein complex. The assessment of inhibitory effect (EC50) of small molecules was measured by the effectiveness of the compounds to inhibit this reaction.
In this assay, the potency (EC50) of each compound was determined from a twenty-point (1:2 serial dilution; top compound concentration of 100000 nM) titration curve using the following outlined procedure. To each well of a white ProxiPlus 384 well-plate, 100 nL of compound (1% DMSO in final assay volume of 10 μL) was dispensed, followed by the addition of 8 μL of 1× assay buffer (50 mM Bicine pH 8.0, 1 mM DTT, 0.004% Tween20, 0.01% BSA) containing 0.625 nM of Full-length (FL)-PRMT5-MEP50 enzyme complex (recombinant proteins from baculovirus-transfected Sf21 cells: FL-PRMT5; MW=[…] and FL-MEP50; MW=38614). Plates were sealed and placed in a 37° C. humidified chamber for 30 minutes pre-incubation with compounds. Subsequently, each reaction was initiated by the addition of 2 μL 1× assay buffer containing 375 nM biotinylated H4R3 (MeI) peptide, and 75 μM S-(5′-Adenosyl)-L-Methionine Chloride (SAM). The final reaction in each well of 10 μL consists of 0.5 nM PRMT5-MEP50, 75 nM biotinylated-peptide, and 15 μM SAM. Methylation reactions were allowed to proceed for 150 minutes in a sealed plate at 37° C. Reactions were immediately quenched by the addition of 1 μL of 10% formic acid. Plates were then frozen and shipped to SAMDI™ Tech Inc. to determine the percent conversion from […]. Dose-response curves were generated by plotting percent effect (% product conversion; Y-axis) vs. Log 10 compound concentrations (X-axis). EC50 values were determined by non-linear regression according to models for either sigmoidal (4 parameters) or biphasic (7 parameters) dose-response curves.

PRMT5 = target: T2, PRMT5 (Homo sapiens, UniProt O14744); assay: PRMT5 Cell Target Engagement (TE) Assay; format: cell-based; settings: MCF-7 cells, treated for 3 days, symmetric dimethylation of arginine (SDMA) by high content imaging
T2 construct: seeded with 4000 MCF-7 cells in 30 μl media; endogenous in cells; host or cells: MCF-7 cells
T2 sequence (O14744 whole entry): as the sequence (O14744 whole entry) above
T2 sequence (Q9BQA1 whole entry partner): as the sequence (Q9BQA1 whole entry partner) above
Description: PRMT5 Cell Target Engagement (TE) Assay
The PRMT5 TE assay is a biomarker assay for identifying compounds that inhibit symmetric dimethylation of arginine (SDMA) of PRMT5 substrates. The following substrates have been reported for PRMT5: histone H2A and H4 R3, Histone H3 R2, Histone H3 R8, spliceosome Sm proteins, ribosomal protein RPS10, p53, FEN1, nucleoplasmin, nucleolin, EGFR and EBNA. The assay focuses on detecting symmetrically dimethylated nuclear proteins using high content imaging technology. Detection of the expression of symmetrically dimethylated nuclear proteins is through a mixture of primary rabbit monoclonal antibodies to SDMA (CST 13222), which in turn recognized by an Alexafluor 488 dye-conjugated anti-rabbit IgG secondary antibody. The IN Cell Analyzer 2200 or Opera-Phenix measures nuclear Alexafluor 488 fluorescent dye intensity that is directly related to the level of expression of symmetrically dimethylated nuclear proteins at the single cell level. Nuclear AF488 dye intensities are compared to the mean value for DMSO treated cells (MIN) to report percent of inhibition for each compound-treated well.
In this assay, the cell potency (EC50) of each compound was determined from a ten point (1:3 serial dilution; top compound concentration of 10000 nM) titration curve using the following outlined procedure. Each well of a BD falcon collagen coated black/clear bottom 384-well plate was seeded with 4000 MCF-7 cells in 30 μl media and allowed to attach for 5 h. Media is ATCC-formulated Eagle's Minimum Essential Medium, Catalog No. 30-2003. To make the complete growth medium, the following components were added to the base medium: 0.01 mg/mL human recombinant insulin; fetal bovine serum to a final concentration of 10%. Additional 30 μl of media containing 2× compounds were added to each well. Cells were treated for 3 days in 37° C. CO2 incubator. On day 3, cells were fixed with Cytofix, permeabilized with 0.4% Triton-X-100/Cytofix, and washed with D-PBS without Ca/Mg. Cells were blocked with Licor Odessey blocking reagent for 1 h at room temperature, followed by incubation with anti-SDMA (1:1000) antibody at 4° C. overnight. 1° antibody was removed, followed by three washings with DPBS without Ca/Mg and 0.05% Tween20. Hoechst (5 μg/mL), Cell Mask deep stain (1:2000) and Alexa488-conjugated goat anti-rabbit IgG (2 μg/mL) was added for 1 h at room temperature. A final washing step (three washes) was performed before sealing plate for imaging on In Cell Analyzer 2200 or Opera-Phenix. Images from analyzer were uploaded to Columbus (at WP or BOS) for image analysis. IC50 values were determined by 4 parameters robust fit of percent fluorescence units vs. (Log10) compound concentrations.

[2] = first of two EC50s: 7 parameters biphasic model, read-out: Enzyme Methylation Assay Version B (EC50_1)
[3] = second of two EC50s: 7 parameters biphasic model, read-out: Enzyme Methylation Assay Version B (EC50_2)

EC50 ([1]; only one EC50 shown: 4 parameters single site sigmoidal model, 30 min pre-incubation, read-out: Enzyme Methylation Assay Version B (EC50)) | SMILES | EC50 [1, 2] | EC50 [1, 3] | EC50 (PRMT5)
– | CCOc1cc(C(=O)N2C3CCC2COC3)ccc1C(=O)N1CC[C@@H](N2CCc3ccccc3C2)[C@H](O)C1 [Example 34, (4-(3-oxa-8-azabicyclo[3.2.1]octane-8-carbonyl)-2-ethoxyphenyl)((3R,4R)-4-(3,4-dihydroisoquinolin-2(1H)-yl)-3-hydroxypiperidin-1-yl)methanone] | ~38 nM | 20600 nM | 2220 nM
– | O=C(c1ccc(C(=O)N2C3CCC2COC3)cc1)N1CC[C@H](N2CCc3ccccc3C2)[C@@H](O)C1 [Example 35] | 6.6 nM | 2580 nM | 68 nM
– | O=C(c1ccc(C(=O)N2C3CCC2COC3)cc1)N1CC[C@@H](N2CCc3ccccc3C2)[C@H](O)C1 [Example 36, (4-(3-oxa-8-azabicyclo[3.2.1]octane-8-carbonyl)phenyl)((3R,4R)-4-(3,4-dihydroisoquinolin-2(1H)-yl)-3-hydroxypiperidin-1-yl)methanone] | ~552 nM | > 100000 nM | > 10000 nM
– | O=C(c1ccc(C(=O)N2C3CCC2COC3)cc1)N1CC[C@H](N2CCc3c(F)cccc3C2)[C@@H](O)C1 [Example 37, (4-(3-oxa-8-azabicyclo[3.2.1]octane-8-carbonyl)phenyl)((3S,4S)-4-(5-fluoro-3,4-dihydroisoquinolin-2(1H)-yl)-3-hydroxypiperidin-1-yl)methanone] | ~87 nM | 28600 nM | 1850 nM
– | O=C(c1ccc(C(=O)N2C3CCC2COC3)cc1)N1CC[C@@H](N2CCc3c(F)cccc3C2)[C@H](O)C1 [Example 38, (4-(3-oxa-8-azabicyclo[3.2.1]octane-8-carbonyl)phenyl)((3R,4R)-4-(5-fluoro-3,4-dihydroisoquinolin-2(1H)-yl)-3-hydroxypiperidin-1-yl)methanone] | ~402 nM | > 100000 nM | > 10000 nM
– | O=C(c1ccc(C(=O)N2C3CCC2COC3)cc1)N1CC[C@H](N2CCc3cc(F)ccc3C2)[C@@H](O)C1 [Example 39, (4-(3-oxa-8-azabicyclo[3.2.1]octane-8-carbonyl)phenyl)((3S,4S)-4-(6-fluoro-3,4-dihydroisoquinolin-2(1H)-yl)-3-hydroxypiperidin-1-yl)methanone] | 31200 nM | > 100000 nM | > 10000 nM
– | O=C(c1ccc(C(=O)N2C3CCC2COC3)cc1)N1CC[C@@H](N2CCc3cc(F)ccc3C2)[C@H](O)C1 [Example 40, (4-(3-oxa-8-azabicyclo[3.2.1]octane-8-carbonyl)phenyl)((3R,4R)-4-(6-fluoro-3,4-dihydroisoquinolin-2(1H)-yl)-3-hydroxypiperidin-1-yl)methanone] | 45100 nM | > 100000 nM | > 10000 nM
– | O=C(c1ccc(C(=O)N2C3CCC2COC3)cc1)N1CC[C@H](N2CCc3ccc(F)cc3C2)[C@@H](O)C1 [Example 41, (4-(3-oxa-8-azabicyclo[3.2.1]octane-8-carbonyl)phenyl)((3S,4S)-4-(7-fluoro-3,4-dihydroisoquinolin-2(1H)-yl)-3-hydroxypiperidin-1-yl)methanone] | 19 nM | 8110 nM | 1490 nM
– | O=C(c1ccc(C(=O)N2C3CCC2COC3)cc1)N1CC[C@@H](N2CCc3ccc(F)cc3C2)[C@H](O)C1 [Example 42] | 12400 nM | > 100000 nM | > 10000 nM
– | O=C(c1ccc(OCC(F)(F)F)nc1)N1CC[C@H](N2CCc3ccccc3C2)[C@@H](O)C1 [Example 43, ((3S,4S)-4-(3,4-dihydroisoquinolin-2(1H)-yl)-3-hydroxypiperidin-1-yl)(6-(2,2,2-trifluoroethoxy)pyridin-3-yl)methanone] | 3.7 nM | 3200 nM | 441 nM
– | O=C(c1ccc(OCC(F)(F)F)nc1)N1CC[C@@H](N2CCc3ccccc3C2)[C@H](O)C1 [Example 44, ((3R,4R)-4-(3,4-dihydroisoquinolin-2(1H)-yl)-3-hydroxypiperidin-1-yl)(6-(2,2,2-trifluoroethoxy)pyridin-3-yl)methanone] | ~312 nM | > 100000 nM | > 10000 nM
– | CC(=O)N1CCC(Nc2cc(C(=O)N3CC[C@H](N4CCc5ccccc5C4)[C@@H](O)C3)c(Cl)cn2)CC1 [Example 49, 1-{4-[(5-chloro-4-{[(3S,4S)-4-(3,4-dihydroisoquinolin-2(1H)-yl)-3-hydroxypiperidin-1-yl]carbonyl}pyridin-2-yl)amino]piperidin-1-yl}ethanone] | 11 nM | 8910 nM | 7.8 nM
– | O=C(c1cc2n(n1)CCN(CC(F)(F)F)C2)N1CC[C@H](N2CCc3ccccc3C2)[C@@H](O)C1 [Example 50, ((3S,4S)-4-(3,4-dihydroisoquinolin-2(1H)-yl)-3-hydroxypiperidin-1-yl)(5-(2,2,2-trifluoroethyl)-4,5,6,7-tetrahydropyrazolo[1,5-a]pyrazin-2-yl)methanone] | ~76 nM | 33500 nM | 4260 nM
– | O=C(c1ccc(-c2ncnn2C2CC2)cc1)N1CC[C@H](N2CCc3ccccc3C2)[C@@H](O)C1 [Example 60, (4-(1-cyclopropyl-1H-1,2,4-triazol-5-yl)phenyl)((3S,4S)-4-(3,4-dihydroisoquinolin-2(1H)-yl)-3-hydroxypiperidin-1-yl)methanone] | 14 nM | 4680 nM | 435 nM
2550 nM | O=C(c1ccc(-c2ncnn2C2CC2)cc1)N1CC[C@@H](N2CCc3ccccc3C2)[C@H](O)C1 [Example 61, (4-(1-cyclopropyl-1H-1,2,4-triazol-5-yl)phenyl)((3R,4R)-4-(3,4-dihydroisoquinolin-2(1H)-yl)-3-hydroxypiperidin-1-yl)methanone] | – | – | > 10000 nM
– | COc1cnc(NC2CCN(C(C)=O)CC2)cc1C(=O)N1CC[C@H](N2CCc3ccccc3C2)[C@@H](O)C1 [Example 88, 1-(4-((4-((3S,4S)-4-(3,4-dihydroisoquinolin-2(1H)-yl)-3-hydroxypiperidine-1-carbonyl)-5-methoxypyridin-2-yl)amino)piperidin-1-yl)ethan-1-one] | 9.3 nM | 2040 nM | 14 nM
– | CC1(C)CC(=O)Nc2cc(C(=O)N3CC[C@@H](N4CCc5ccccc5C4)[C@H](O)C3)ccc21 [Example 95, 7-((3R,4R)-4-(3,4-dihydroisoquinolin-2(1H)-yl)-3-hydroxypiperidine-1-carbonyl)-4,4-dimethyl-3,4-dihydroquinolin-2(1H)-one] | ~62 nM | 39400 nM | 2710 nM
